Data from patent US20180011102A1, “THE PROTEIN KINASE ACTIVITY OF PHOSPHOGLYCERATE KINASE 1 AS A TARGET FOR CANCER TREATMENT AND DIAGNOSIS” (Board of Regents, The University of Texas System, priority 2015, published 2018).

Tests used:
PGK1 S203 = test: Hypoxia-induced PGK1 S203 phosphorylation in U87 cells (streptavidin pull-down / immunoblotting); type: cell-based, human
Procedure: (§1) FIG. 1B. […] FIG. 1C. […] Arrows indicate representative staining of mitochondrial PGK1. Dashed circles indicate mitochondria. FIG. 1D. […] Tubulin was used as a cytosolic protein marker. FIG. 1E. […] Mitochondria fractions and total cell lysates were prepared. FIG. 1F. […] Mitochondria fractions and total cell lysates were prepared. FIG. 1G. […] FIG. 1H. […] FIG. 1I. […] Mitochondrial fractions and total cell lysates were prepared.
FIGS. 11A-J. ERK1/2-mediated PGK1 S203 Phosphorylation Is Required for Mitochondrial Translocation of PGK1. Immunofluorescence, immunoprecipitation, and immunoblotting analyses were performed with the indicated antibodies. FIG. 11A. U87 cells stimulated with or without hypoxia for 6 h were stained with the indicated antibody, MitoTracker, and DAPI. FIG. 11B. […] FIG. 11C. U87 cells were stably transfected with or without vectors expressing HA-MEK1 Q56P with the indicated Flag-ERK2 proteins. Total cell lysates were prepared. FIG. 11D. […] FIG. 11E. Anti-PGK1 pS203 antibody was used to deplete the phosphorylated PGK1 from total cell lysates prepared from U87 cells treated with or without hypoxia for 6 h. The images were quantified by scanning densitometry. […] FIG. 11H. […] FIG. 11I. […] Mitochondria fractions and total cell lysates were prepared. FIG. 11J.
Streptavidin or glutathione agarose beads were incubated with cell lysate (1 mg/ml) or purified protein for 12 h. […]

EGFR = test: Immunoblotting of hypoxia-induced EGFR phosphorylation in U87 cells; type: cell-based, human; conditions: AG1478 100 nM for 30 min before hypoxia 6 h
PGK1 [1] = test: Hypoxia-induced mitochondrial translocation of PGK1 (mitochondrial fractionation, immunoblotting, immunofluorescence); type: cell-based, human
Procedure: as §1
FIGS. 9A-E. Hypoxia Induces Mitochondrial Translocation of PGK1. FIG. 9A. Total cell lysate, cytosolic, and mitochondrial fractions were prepared from U87 and U251 cells stimulated with or without hypoxia for 6 h. Immunoblotting analyses were performed with the indicated antibodies. Hypoxia-induced HIF1α expression (left panel) was a control for hypoxic stimulation. WCL: whole-cell lysate; Cyto: cytosol; Mito: mitochondria. WB, Western blot. FIG. 9B. Cytosolic and mitochondrial fractions were prepared from U87 and U251 cells stimulated with hypoxia for 6 h. Immunoblotting analyses of equal percentages of cytosolic and mitochondrial fraction were performed with the indicated antibodies. WCL: whole-cell lysate; Cyto: cytosol; Mito: mitochondria. Immunoblotting analyses were performed with the indicated antibodies. The images were quantified by scanning densitometry. FIG. 9C. U87 cells transfected with HIF1α siRNA or a scrambled siRNA before hypoxia stimulation for 6 h. […]

ERK1/2 = test: Immunoblotting of hypoxia-induced ERK1/2 phosphorylation/activation in U87 cells; type: cell-based, human
Procedure: (§2) FIGS. 10A-I. Mitochondrial Translocation of PGK1 is depended on ERK1/2-mediated PGK1 Phosphorylation. FIG. 10A. […] Immunoblotting analyses were performed with the indicated antibodies. FIG. 10B. […] Immunoblotting analyses were performed with the indicated antibodies. FIG. 10C. […] Immunofluorescence analyses were carried out using an anti-PGK1 antibody, MitoTracker, and DAPI. FIG. 10D. U87 cells stably transfected with a vector or Flag-ERK2 K52R were treated with or without hypoxia for 6 h. Mitochondria fractions and total cell lysates were prepared. FIG. 10E. U87 cells were stably transfected with or without vectors expressing HA-MEK1 Q56P with the indicated Flag-ERK2 proteins. Mitochondria fractions and total cell lysates were prepared. Immunoblotting analyses were performed with the indicated antibodies. FIG. 10F. U87 cells were treated with or without hypoxia for 6 h. […] FIG. 10G. Immobilized GST or GST-PGK1 protein was incubated with purified recombinant His-ERK2. Immunoblotting analyses were performed with the indicated antibodies. FIG. 10H. […] Immunoblotting analyses were performed with the indicated antibodies. FIG. 10I. […] Immunoblotting analyses were performed with the indicated antibodies.
FIGS. 11A-J. ERK1/2-mediated PGK1 S203 Phosphorylation Is Required for Mitochondrial Translocation of PGK1. […] The images were quantified by scanning densitometry. […]

PIN1 and PGK1 = conditions: U87 cells, U0126 20 μM for 30 min before hypoxia 6 h
Procedure: FIGS. 2A-F and H-I. Immunoblotting and immunoprecipitation analyses were carried out using antibodies against the indicated proteins. FIG. 2A U87 cells were pretreated with or without U0126 (20 μM) for 30 min before hypoxic stimulation for 6 h. […] U87 cells were treated with or without hypoxic stimulation for 6 h. A GST pull-down assay with the indicted GST-proteins was performed. […] U87 cells expressing the indicated PGK1 proteins were treated with or without hypoxic stimulation for 6 h.

PGK1 [2] = conditions: U87/EGFR cells, U0126 20 μM for 30 min, EGF 100 ng/ml 6 h
Procedure: EGFR-overxpressed U87 (U87/EGFR) cells pretreated with U0126 (20 μM) for 30 min were stimulated with or without EGF (100 ng/ml) for 6 h. Mitochondria fractions and total cell lysates were prepared.
U87, U87/EGFR, and U251 human GBM cells, BxPC-3 human pancreatic cancer cells, CHL1 human melanoma cells, and mouse embryo fibroblast (MEF) cells were maintained in Dulbecco's modified Eagle's medium (DMEM) supplemented with 10% dialyzed bovine calf serum without pyruvate (HyClone, Logan, Utah). […] For EGF treatments, cell cultures were made quiescent by growing them to confluence, and the medium was replaced with fresh medium containing 0.5% serum for 1 day. EGF at a final concentration of 100 ng/ml was used for cell stimulation.
Mitochondrial and cytosolic fractions were isolated using a mitochondria/cytosol fractionation kit from BioVision (Mountain View, Calif.). Mitochondrial proteins and cytosolic proteins were used in immunoblotting analyses.

MAPK/APK2 = test: Immunoblotting of hypoxia-induced MAPK/APK2 phosphorylation in U87 cells; type: cell-based, human; conditions: pretreated with SB203580 10 μM for 30 min, hypoxia 6 h
Procedure: as §2

PGK1 [3] = test: Determining KM of PGK1 (PGK1-dependent PDHK phosphorylation, Lineweaver-Burke plot); type: biochemical, human; conditions: purified recombinant WT PGK1, Sumo-PDHK1, 37° C., means ±SD of three experiments; read-out: Km of ATP for PGK1-dependent PDHK phosphorylation
Procedure: FIGS. 14A-P. Mitochondrial PGK1 Phosphorylates PDHK1 at T338. FIG. 14A. […] Immunoblotting analyses were performed with the indicated antibodies. FIG. 14B. U87 cells (left panel) or U87/EGFR (right panel) cells expressing PGK1 shRNA with or without reconstituted expression of WT rPGK1 and the indicated mutants were stimulated with or without hypoxia for 6 h (left panel) or EGF (100 ng/ml) (right panel) for 6 h. These cells were incubated with [1-^14C]-pyruvate for 2 h. [1-^14C]CO2 production rates were measured. FIG. 14C. U87 cells expressing SFB-PDHK1, SFB-PDHK2, SFB-PDHK3, or SFB-PDHK4 were stimulated with or without hypoxia for 6 h. Mitochondrial fractions of these cells were prepared. […] ATP concentrations in mitoplast isolated from U87 or U251 cells treated with or without hypoxia for 6 h were measured. […] The glycolytic activities of bacterially purified WT PGK1, PGK1 T378P, PGK1 S203A, and PGK1 R39/K41A were measured. […]
Purified recombinant WT PGK1 (0.2 ng) was incubated in 100 μl of reaction buffer (50 mM Tris-HCl [pH 7.5], 600 ng/μl Sumo-PDHK1, 5 mM MgSO4, 1 mM Na3VO4, 1 mM DTT, 1.8 mM phosphorenolpyruvate, 7 units pyruvate kinase, 10 units lactic dehydrogenase, 0.01 mM NADH) with indicated ATP concentration at 37° C. in 96-well plate and were read by multidetection microplate readers (BMG LABTECH, Cary, N.C.) at 339 nm in kinetic mode for 5 min. […]

U87 cells = test: Cell proliferation assay under hypoxia; type: cell-based, human; conditions: PGK1-depleted U87 cells reconstituted with WT PGK1 or PGK1 R39/K41A, DTT 1 mM, hypoxia 4 days
Procedure: FIGS. 17A-H. Mitochondrial PGK1-Dependent PDHK1 Phosphorylation Promotes Cell Proliferation and Brain Tumorigenesis. FIGS. 17A-C. Data represent the means ±SD of three independent experiments. FIG. 17A. A total of 2×10^5 U251 cells with or without PGK1 shRNA (left panel) or PDHK1 shRNA (right panel) expression and with or without reconstituted expression of their WT counterparts and the indicated mutants were plated for 4 days under hypoxic conditions. The cells were then collected and counted. FIG. 17B. A total of 2×10^5 endogenous PGK1-depleted U87 cells with reconstituted expression of WT rPGK1 or rPGK1 R39/K41A were plated and treated with or without DTT (1 mM) during hypoxia for 4 days. The cells were then collected and counted. FIG. 17C. Mitochondria fractions and total cell lysates from endogenous PGK1-depleted U87/EGFRvIII cells with reconstituted expression of WT rPGK1 or rPGK1 S203A were prepared. […] The indicated U87/EGFRvIII cells (2×10^5) were plated for 3 days and were counted (right panel). […] The cells were then collected and counted. #p<0.05. […] Tumor volume was calculated using length a and width b: V=ab^2/2. […] Ki67-positive cells were quantified in 10 microscope fields. […] Apoptotic cells were quantified in 10 microscope fields.
A total of […] cells were plated and counted at 4 days after seeding in DMEM with 10% dialyzed bovine calf serum during hypoxia. […]

[4] = U87 cells, AG1478 100 nM for 30 min before hypoxia 6 h

SMILES: COc1cc2ncnc(Nc3cccc(Cl)c3)c2cc1OC [AG1478]
- hypoxia-induced phosphorylation of PGK1 (PGK1 S203; [4]): blocked
- hypoxia-induced EGFR phosphorylation (EGFR): blocked
- hypoxia-induced mitochondrial translocation of PGK1 (PGK1 [1]; [4]): blocked
- hypoxia-induced ERK activation (ERK1/2; AG1478 100 nM for 30 min before hypoxia 6 h): blocked

SMILES: N#CC(=C(/N)Sc1ccccc1N)/C(C#N)=C(\N)Sc1ccccc1N [U0126]
- hypoxia-induced PGK1 S203 phosphorylation (PGK1 S203; U87 cells expressing SFB-tagged PGK1, U0126 20 μM or SP600125 25 μM for 30 min before hypoxia 6 h): abolished
- hypoxia-induced mitochondrial translocation of PGK1 (PGK1 [1]; U87 and U251 cells, U0126 20 μM for 30 min before hypoxia 6 h): notably reduced
- hypoxia-increased interaction between endogenous PIN1 and PGK1 (PIN1 and PGK1): blocked
- hypoxia-induced phosphorylation of ERK1/2 (ERK1/2; pretreated with U0126 20 μM for 30 min, hypoxia 6 h): blocked
- EGF-induced mitochondrial translocation of PGK1 (PGK1 [2]): blocked

SMILES: C[S+]([O-])c1ccc(-c2nc(-c3ccncc3)c(-c3ccc(F)cc3)[nH]2)cc1 (stereo not drawn) [SB203580]
- hypoxia-induced phosphorylation of MAPK/APK2 (MAPK/APK2): blocked

SMILES: Nc1ncnc2c1ncn2[C@@H]1O[C@H](COP(=O)(O)OP(=O)(O)OP(=O)(O)O)[C@@H](O)[C@H]1O [ATP, adenosine triphosphate]
- Km (PGK1 [3]): 560 ± 53 µM

SMILES: O[C@@H](CS)[C@@H](O)CS [DTT]
- hypoxia-induced growth suppression (U87 cells): partially rescued
